# Source: PMC8760513, “Mechanistic details of the actinobacterial lyase-catalyzed degradation reaction of 2-hydroxyisobutyryl-CoA” (The Journal of Biological Chemistry, 2021)
# Biological target: T1, AcHACL (Actinomycetospora chiangmaiensis, UniProt P0DUV9)
# T1 construct: recombinant from E. coli Lemo21(DE3), vector pASG-IBA43, N-terminal His-tag and C-terminal Strep-tag; tag removal not mentioned; homotetramer (dimer of dimers); C-terminal lid residues 556-590
# T1 sequence (P0DUV9 1-590): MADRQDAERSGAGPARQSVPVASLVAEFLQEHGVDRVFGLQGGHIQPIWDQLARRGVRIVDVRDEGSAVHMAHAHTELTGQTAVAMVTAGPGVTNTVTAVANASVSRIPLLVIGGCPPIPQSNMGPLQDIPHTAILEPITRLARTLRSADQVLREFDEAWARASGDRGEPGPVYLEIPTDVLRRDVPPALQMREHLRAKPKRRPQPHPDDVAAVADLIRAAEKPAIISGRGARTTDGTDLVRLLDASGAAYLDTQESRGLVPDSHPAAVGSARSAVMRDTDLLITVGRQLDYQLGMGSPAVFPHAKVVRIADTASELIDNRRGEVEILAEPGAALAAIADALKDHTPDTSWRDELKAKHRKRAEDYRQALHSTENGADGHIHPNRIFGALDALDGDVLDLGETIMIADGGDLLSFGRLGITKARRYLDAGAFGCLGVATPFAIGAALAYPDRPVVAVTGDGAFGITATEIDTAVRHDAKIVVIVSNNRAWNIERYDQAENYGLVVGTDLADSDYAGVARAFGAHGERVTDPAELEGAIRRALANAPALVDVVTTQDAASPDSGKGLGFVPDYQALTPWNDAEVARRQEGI
# Test: X-ray crystal structure, […] Å
# Type: binding
SMILES,"X-ray crystal structure, 1.64 Å (product-bound dimer, additional density near ThDP interpreted as acetone, hydrogen bond to E493)","X-ray crystal structure, 1.64 Å (product-bound dimer formed from 2-HIB-CoA in the crystal, density not well defined beyond the pantoyl moiety)"
CC(C)=O [acetone],additional electron density close to the ThDP cofactor was interpreted as an acetone molecule,–
CC(C)(COP(=O)(O)OP(=O)(O)OC[C@H]1O[C@@H](n2cnc3c(N)ncnc32)[C@H](O)[C@@H]1OP(=O)(O)O)[C@@H](O)C(=O)NCCC(=O)NCCSC=O [formyl-CoA],–,the products formyl-CoA and acetone are bound to the other dimer
